Assay results taken from US7879853B2, “4,6-disubstituted pyrimidines and their use as protein kinase inhibitors” (Bayer Schering Pharma AG, priority 2004, dated 2011).

Tests used:
GST-ΔPH-Akt1 = molecular target: T1, GST-ΔPH-Akt1 (Homo sapiens, UniProt P31749); assay: Biochemical ΔPH Akt1 assay (flashplate, 33P-ATP, histone 2B); details: GST-ΔPH-Akt1, histone 2B substrate, 100 nM ATP, 80 minutes at 30° C.; read-out: Akt inhibition: IC50 (inhibition of deltaPHAkt1)
T1 construct: named GST-deltaPH-Akt1; 107480aa; cloned in the pAcG1 vector; made in house; host or cells: SF9 insect cells (pAcG1 vector), co-expressed with PDK1
From the text: For the biochemical assay ΔPHAkt1 was used devoid of its PH domain as a GST fusion protein (named GST-deltaPH-Akt1; 107480aa; cloned in the pAcG1 vector (BD Biosciences Pharmingen)), co-expressed with PDK1 in SF9 insect cells. The protein was purified using glutathion-affinity chromatography by standard protocols.
In order to study the inhibition of Akt according to the invention, a flashplate-based assay has been developed.
The Akt1 assay is a biochemical assay using Akt1 devoid of its PH domain and co-expressed with PDK1 in insect cells. The GST-ΔPH-Akt1 assay is run in 96 well plates by incubating 100 ng/well GST-ΔPH-Akt1, 100 ng/well histone 2B (Roche, #223514) as substrate, 10 μl of compound of invention (test compounds were dissolved as 10 mM solutions in dimethylsulfoxide (DMSO) and subsequently diluted) and 100 nM ATP (including ^33P-ATP) in 100 μl of reaction buffer ([…], pH7.5; 3 mM MgCl2; 3 mM MnCl2; 3 μM Na-Orthovanadat; 1 mM DTT; 1 μg/ml PEG8000) for 80 minutes at 30° C. The reactions are terminated by adding 100 μl stopping buffer (2% H3PO4 for 5 minutes) and are washed 3 times by using washing buffer (0.9% NaCl). Relying on the incorporation of ^33P into the protein substrate histone 2B, the detection is based on the adhesion of the phosphorylated protein to the surface of scintillator-coated flash plates (NEN, USA; #SMP-200). This phosphorylation is measured by counting the plate for 60 sec. using a plate reader (Wallac Microbeta; Perkin Elmer, USA). The analysis of the data is performed using a biostatistical program (GraphPad Prism, USA).

MCF7 cells = assay: Cellular proliferation/cytotoxicity assay (Alamar Blue), MCF7; assay type: cell-based; details: Homo sapiens; MCF7, 48 hours, Alamar Blue (Resazurin); read-out: Anti-proliferative/cytotoxic activity: IC50 MCF7
Method: (§1) The anti-proliferative activity of the compounds as described herein, is evaluated using MCF7 and MDA-MB-468 (ATCC HTB-22 and HTB-132) cell lines and the Alamar Blue (Resazurin) cell viability assay (O'Brien et al. Eur J Biochem 267, 5421-5426, 2000). Resazurin is reduced to the fluorescent rescrufin by cellular dehydrogenase activity, correlating with viable, proliferating cells. Test compounds are dissolved as 10 mM solutions in DMSO and subsequently diluted. MCF7 or […] cells were seeded into 96 well flat bottom plates at a density of 10000 cells/well (MCF7) or 5000 cells/well (MDA-MB-468) in a volume of 200 μl/well. 24 hours after seeding, 1 μl each of the compound dilutions are added into each well of the 96 well plates. Each compound dilution is tested as at least as duplicates. Wells containing untreated control cells were filled with 200 μl DMEM containing 0.5% v:v DMSO. The cells are then incubated with the substances for 48 hours at 37° C. in a humidified atmosphere containing 5% carbon dioxide. To determine cell viability, 20 μl of a Resazurin solution (Sigma; 90 mg/l) are added. After 4 hours incubation at 37° C. the fluorescence is measured at an extinction of 544 nm and an emission of 590 nm (Wallac Victor2; Perkin Elmer, USA). For the calculation of the cell viability the emission value from untreated cells is set as 100% viability and the emission rates of treated cells are set in relation to the values of untreated cells. Viabilities are expressed as % values. The corresponding IC50 values of the compounds for cytotoxic activity are determined from the concentration-effect curves by means of non-linear regression. The analysis of the data is performed using a biostatistical program (GraphPad Prism, USA).

MDA-MB-468 cells = assay: Cellular proliferation/cytotoxicity assay (Alamar Blue), MDA-MB-468; assay type: cell-based; details: Homo sapiens; MDA-MB-468, 48 hours, Alamar Blue (Resazurin); read-out: Anti-proliferative/cytotoxic activity: IC50 MDA468
Method: as §1

T1 sequence (P31749 107-480 limits assumed, stated change not applied): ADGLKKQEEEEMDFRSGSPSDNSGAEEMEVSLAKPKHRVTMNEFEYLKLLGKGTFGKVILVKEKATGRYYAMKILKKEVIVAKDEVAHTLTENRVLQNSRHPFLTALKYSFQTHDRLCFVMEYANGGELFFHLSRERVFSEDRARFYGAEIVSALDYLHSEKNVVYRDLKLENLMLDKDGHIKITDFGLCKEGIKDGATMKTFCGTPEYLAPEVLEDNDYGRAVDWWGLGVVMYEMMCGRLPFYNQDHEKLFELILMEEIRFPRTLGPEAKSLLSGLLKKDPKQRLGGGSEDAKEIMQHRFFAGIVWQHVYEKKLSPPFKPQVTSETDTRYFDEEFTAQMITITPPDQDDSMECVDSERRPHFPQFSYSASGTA

SMILES	melting point	IC50 (GST-ΔPH-Akt1) [µM]	IC50 (MCF7 cells) [µM]	IC50 (MDA-MB-468 cells) [µM]
NCc1cccc(C(=O)Nc2ccc(Nc3cc(-c4cccc5c4oc4ccccc45)ncn3)cc2)c1.O=C(O)C(F)(F)F [Compound 54, 3-Aminomethyl-N-[4-(6-dibenzofuran-4-yl-pyrimidin-4-ylamino)-phenyl]-benzamide trifluoroacetate]	238 to 240 °C	–	≤ 16.6	≤ 6.05
N=C(N)c1cccc(C(=O)Nc2ccc(Nc3cc(-c4cccc5c4oc4ccccc45)ncn3)cc2)c1 [Compound 45, 3-Carbamimidoyl-N-[4-(6-dibenzofuran-4-yl-pyrimidin-4-ylamino)-phenyl]-benzamide]	300 to 306 °C	–	≤ 16.6	≤ 6.05
CNCc1ccc(C(=O)Nc2ccc(Nc3cc(-c4cccc5c4oc4ccccc45)ncn3)cc2)cc1.O=C(O)C(F)(F)F [Compound 63, N-[4-(6-Dibenzofuran-4-yl-pyrimidin-4-ylamino)-phenyl]-4-methylaminomethyl-benzamide trifluoroacetate]	130 to 140 °C	–	≤ 16.6	≤ 6.05
COCCNc1ccc(C(=O)Nc2ccc(Nc3cc(-c4cccc5c4oc4ccccc45)ncn3)cc2)cc1.O=C(O)C(F)(F)F [Compound 71, N-[4-(6-Dibenzofuran-4-yl-pyrimidin-4-ylamino)-phenyl]-4-(2-methoxyethylamino)benzamide trifluoroacetate]	> 250 °C	≤ 5	–	–
Cc1ccc(NC(=O)c2ccc(CN)cc2)cc1Nc1cc(-c2cccc3c2oc2ccccc23)ncn1.O=C(O)C(F)(F)F [Compound 67, 4-Aminomethyl-N-[3-(6-dibenzofuran-4-yl-pyrimidin-4-ylamino)-4-methyl-phenyl]-benzamide trifluoroacetate]	180 to 185 °C	≤ 5	–	–
Nc1ccc(C(=O)Nc2cccc(Nc3cc(-c4cccc5c4oc4ccccc45)ncn3)c2)cc1.O=C(O)C(F)(F)F [Compound 62, 4-Amino-N-[3-(6-dibenzofuran-4-yl-pyrimidin-4-ylamino)-phenyl]-benzamide trifluoroacetate]	185 to 188 °C	≤ 5	–	–
Nc1cccc(C(=O)Nc2ccc(Nc3cc(-c4cccc5c4oc4ccccc45)ncn3)cc2)c1.O=C(O)C(F)(F)F [Compound 51, 3-Amino-N-[4-(6-Dibenzofuran-4-yl-pyrimidin-4-ylamino)-phenyl]-benzamide trifluoroacetate]	140 to 147 °C	≤ 5	–	–
N=C(N)c1ccc(C(=O)Nc2ccc(Nc3cc(-c4cccc5c4oc4ccccc45)ncn3)cc2)cc1 [Compound 47, 4-Carbamimidoyl-N-[4-(6-dibenzofuran-4-yl-pyrimidin-4-ylamino)-phenyl]-benzamide]	–	–	≤ 16.6	≤ 6.05
NCc1ccc(C(=O)Nc2ccc(Nc3cc(-c4cccc5c4oc4ccccc45)ncn3)cc2)c(F)c1 [Compound 72, 4-Aminomethyl-N-[4-(6-dibenzofuran-4-yl-pyrimidin-4-ylamino)-phenyl]-2-fluorobenzamide]	> 200 °C (dec.)	≤ 5	–	–
O=C(Nc1ccc(Nc2cc(-c3cccc4c3oc3ccccc34)ncn2)cc1)c1ccc(C2CCCNC2)cc1.O=C(O)C(F)(F)F (centres unmarked) [Compound 52, N-[4-(6-Dibenzofuran-4-yl-pyrimidin-4-ylamino)-phenyl]-4-piperidin-3-yl-benzamide trifluoroacetate]	140 to 147 °C	–	≤ 16.6	≤ 6.05
NCc1ccc(C(=O)Nc2ccc(Nc3cc(-c4cccc5c4oc4ccccc45)ncn3)cc2)nc1.O=C(O)C(F)(F)F [Compound 77, 5-Aminomethyl-pyridine-2-carboxylic acid [4-(6-dibenzofuran-4-yl-pyrimidin-4-ylamino)-phenyl]-amide trifluoroacetate]	164 to 170 °C	≤ 5	–	–

The next lines start with results.

melting point	IC50 (GST-ΔPH-Akt1) [µM]	SMILES	IC50 (MCF7 cells) [µM]	IC50 (MDA-MB-468 cells) [µM]
140 to 150 °C	≤ 5	Nc1ccccc1C(=O)Nc1cccc(Nc2cc(-c3cccc4c3oc3ccccc34)ncn2)c1.O=C(O)C(F)(F)F [Compound 59, 2-Amino-N-[3-(6-dibenzofuran-4-yl-pyrimidin-4-ylamino)-phenyl]-benzamide trifluoroacetate]	–	–
146 °C	≤ 5	O=C(Nc1ccc(Nc2cc(-c3cccc4c3oc3ccccc34)ncn2)cc1)c1ccc2c(c1)CCNC2.O=C(O)C(F)(F)F [Compound 78, 1,2,3,4-Tetrahydro-isoquinoline-6-carboxylic acid [4-(6-dibenzofuran-4-yl-pyrimidin-4-ylamino)-phenyl]-amide trifluoroacetate]	≤ 16.6	≤ 6.05
184 °C (dec.)	≤ 5	NCc1cncc(C(=O)Nc2ccc(Nc3cc(-c4cccc5c4oc4ccccc45)ncn3)cc2)c1 [Compound 74, 5-Aminomethyl-N-[4-(6-dibenzofuran-4-yl-pyrimidin-4-ylamino)-phenyl]-nicotinamide]	–	–
283 to 295 °C	≤ 5	O=C(Nc1ccc(Nc2cc(-c3cccc4c3oc3ccccc34)ncn2)cc1)c1ccncc1 [Compound 11, N-[4-(6-Dibenzofuran-4-yl-pyrimidin-4-ylamino)-phenyl]-isonicotinamide]	–	–
–	≤ 5	N#Cc1ccc(C(=O)Nc2ccc(Nc3cc(-c4cccc5c4oc4ccccc45)ncn3)cc2)cc1 [Compound 46, 4-Cyano-N-[4-(6-dibenzofuran 4-yl-pyrimidin-4-ylamino)-phenyl]-benzamide]	–	–
299 °C	≤ 5	CN(C)Cc1ccc(C(=O)Nc2ccc(Nc3cc(-c4cccc5c4oc4ccccc45)ncn3)cc2)cc1 [Compound 12, N-[4-(6-Dibenzofuran-4-yl-pyrimidin-4-ylamino)-phenyl]-4-dimethylaminomethyl-benzamide]	–	–
250 to 255 °C	≤ 5	O=C(Nc1ccc(Nc2cc(-c3cccc4c3oc3ccccc34)ncn2)cc1)c1cccc(N2CCCC2)c1 [Compound 6, N-[4-(6-Dibenzofuran-4-yl-pyrimidin-4-ylamino)-phenyl]-3-pyrrolidin-1-ylbenzamide]	–	–
317 to 321 °C	≤ 5	O=C(Nc1ccc(Nc2cc(-c3cccc4c3oc3ccccc34)ncn2)cc1)c1ccc(Cl)c(Cl)c1 [Compound 9, 3,4-Dichloro-N-[4-(6-dibenzofuran-4-yl-pyrimidin-4-ylamino)-phenyl]-benzamide]	–	–
> 250 °C	≤ 5	CN(C)c1ccc(C(=O)Nc2cccc(Nc3cc(-c4cccc5c4oc4ccccc45)ncn3)c2)cc1 [Compound 42, N-[3-(6-Dibenzofuran-4-yl-pyrimidin-4-ylamino)-phenyl]-4-dimethylamino-benzamide]	–	–
150 to 156 °C	≤ 5	NCc1cccc(C(=O)Nc2cccc(Nc3cc(-c4cccc5c4oc4ccccc45)ncn3)c2)c1.O=C(O)C(F)(F)F [Compound 61, 3-Aminomethyl-N-[3-(6-dibenzofuran-4-yl-pyrimidin-4-ylamino)-phenyl]-benzamide trifluoroacetate]	–	–
